# Data from patent publication US20240148821A1, “PHARMACEUTICAL USE OF CYCLIC PEPTIDE COMPOUND” (CHUGAI SEIYAKU KABUSHIKI KAISHA, priority 2021, published 2024).
# Numbered stars: 1 amine (or outer) side, 2 acyl side, 3 side chain; on linkers, the order of the positions; unused ones are H or OH. Bridge positions count the residues as written; N and C are the ends. Square brackets hold non-standard residues; d marks the D form. Peptide text beside a SMILES is read from it. * marks the point of attachment. hPhe(3-Cl-4-CF3) = N[C@@H](CCc1ccc(C(F)(F)F)c(Cl)c1)C(=O)O; hPhe(3-F,4-CF3) = N[C@@H](CCc1ccc(C(F)(F)F)c(F)c1)C(=O)O; NEtPhe(4-CF3) = CCN[C@@H](Cc1ccc(C(F)(F)F)cc1)C(=O)O; NMePhe(4-CF3) = CN[C@@H](Cc1ccc(C(F)(F)F)cc1)C(=O)O; hPhe(4-CF3) = N[C@@H](CCc1ccc(C(F)(F)F)cc1)C(=O)O; 3Oxa8azabicyclo(3.2.1)octane = C1CC2COCC1N2*; NMePhe(4-Cl) = CN[C@@H](Cc1ccc(Cl)cc1)C(=O)O; X30 = O=C([C@H](CCc1ccc(Cl)cc1F)N[*:1])[*:2]; NMePhe(4-Me) = CN[C@@H](Cc1ccc(C)cc1)C(=O)O; NMePhe(2-Cl) = CN[C@@H](Cc1ccccc1Cl)C(=O)O; NMedβ3hAla = C[C@H](CC(=O)[*:2])N(C)[*:1]; NMeGly(cPent) = CN[C@H](C(=O)O)C1CCCC1; Pro(4,4-F2) = O=C(O)[C@@H]1CC(F)(F)CN1; NMeCha = CN[C@@H](CC1CCCCC1)C(=O)O; cisHyp = O=C(O)[C@@H]1C[C@H](O)CN1; Hyp = O=C(O)[C@@H]1C[C@@H](O)CN1; NEtLeu = CCN[C@@H](CC(C)C)C(=O)O; NMeChg = CN[C@H](C(=O)O)C1CCCCC1; NMeF = CN[C@@H](Cc1ccccc1)C(=O)O; d(β3hL) = CC(C)C[C@@H](N)CC(=O)O; NMeD = CN[C@@H](CC(=O)O)C(=O)O; NMeL = CN[C@@H](CC(C)C)C(=O)O; NMeNle = CCCC[C@H](NC)C(=O)O; NMeV = CN[C@H](C(=O)O)C(C)C; d(β3hA) = C[C@@H](N)CC(=O)O; NMeS = CN[C@@H](CO)C(=O)O; Morpholide = C1CN(*)CCO1; NMeA = CN[C@@H](C)C(=O)O; Piperidide = C1CCN(*)CC1; Pyrrolidide = C1CCN(*)C1; dNMeA = CN[C@H](C)C(=O)O; Ac5c = NC1(C(=O)O)CCCC1; Aze = O=C(O)[C@@H]1CCN1; Sar = CNCC(=O)O; Propyl = CCC*
# Target: protein-protein interaction between Kras and SOS1 (biotin-tagged human Kras loaded with GDP, His-tagged human SOS1) (Homo sapiens (Human), UniProt P01116, G12D)
# Experiment: Protein-protein interaction inhibition between Kras and SOS1 (KrasG12D-SOS PPI) using AlphaScreen;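 note: kras produced in E. coli, Ni-coupled donor beads and streptavidin acceptor beads, excitation 680 nm with emission detected at 520–620 nm via singlet oxygen transfer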
# Format: biochemical
# Settings: AlphaScreen; biotin-tagged human Kras loaded with GDP, His-tagged human SOS1; read-out: KRAS G12D-SOS PPI IC50
row,SMILES,IC50 [nM]
1,CC[C@H](C)[C@@H]1NC(=O)[C@H](C(C)C)N(C)C(=O)C[C@@H](C(=O)N2CCCCC2)NC(=O)[C@H](CC(C)C)N(C)C(=O)C2(CCCC2)NC(=O)[C@H](CC(C)C)N(C)C(=O)[C@H](CCc2ccc(C(F)(F)F)cc2)NC(=O)CN(C)C(=O)[C@H](Cc2ccc(Cl)cc2)N(C)C(=O)CN(C)C(=O)CN(C)C1=O [Compound 610] ([NMeV]I[Sar][Sar][NMePhe(4-Cl)][Sar][hPhe(4-CF3)][NMeL][Ac5c][NMeL]D-Piperidide; lactam N-11),150
2,CC[C@H](C)[C@@H]1NC(=O)[C@H](C)N(C)C(=O)C[C@@H](C)NC(=O)[C@H](CC(C)C)N(C)C(=O)[C@H](C(C)C)N(C)C(=O)[C@H](CC(C)C)N(C)C(=O)[C@H](CCc2ccc(C(F)(F)F)cc2)NC(=O)CN(C)C(=O)[C@H](Cc2ccc(Cl)cc2)N(C)C(=O)CN(C)C(=O)CN(C)C1=O [Compound 588] (cyclo(I[Sar][Sar][NMePhe(4-Cl)][Sar][hPhe(4-CF3)][NMeL][NMeV][NMeL][d(β3hA)][NMeA])),360
3,"CC[C@H](C)[C@@H]1NC(=O)[C@H](CC(C)C)N(C)C(=O)C[C@@H](C)NC(=O)[C@H](C(C)C)N(C)C(=O)C2(CCCC2)NC(=O)[C@@H]2CCCN2C(=O)[C@H](CCc2ccc(C(F)(F)F)c(F)c2)NC(=O)CN(C)C(=O)[C@H](CC2CCCCC2)N(C)C(=O)[C@@H]2CCN2C(=O)[C@H](C)N(C)C1=O [Compound 952] (cyclo([Ac5c][NMeV][d(β3hA)][NMeL]I[NMeA][Aze][NMeCha][Sar][hPhe(3-F,4-CF3)]P))",120
4,CC[C@H](C)[C@@H]1NC(=O)[C@H](C)N(C)C(=O)C[C@@H](C)NC(=O)[C@H](C(C)C)N(C)C(=O)C2(CCCC2)NC(=O)[C@@H]2CCCN2C(=O)[C@H](CCc2ccc(C(F)(F)F)c(Cl)c2)NC(=O)[C@@H](C)N(C)C(=O)[C@H](CC2CCCCC2)N(C)C(=O)[C@@H]2CCN2C(=O)CN(C)C1=O [Compound 601] (cyclo([Ac5c][NMeV][d(β3hA)][NMeA]I[Sar][Aze][NMeCha][dNMeA][hPhe(3-Cl-4-CF3)]P)),87
5,CC[C@H](C)[C@@H]1NC(=O)[C@H](C)N(C)C(=O)C[C@@H](C)NC(=O)[C@H](CC(C)C)N(C)C(=O)[C@H](Cc2ccccc2)N(C)C(=O)[C@H](CC(C)C)NC(=O)[C@H](CCc2ccc(Cl)cc2F)NC(=O)CN(C)C(=O)[C@H](Cc2ccc(Cl)cc2)N(C)C(=O)CN(C)C(=O)CN(C)C1=O [Compound 2086] (cyclo(I[Sar][Sar][NMePhe(4-Cl)][Sar][X30]L[NMeF][NMeL][d(β3hA)][NMeA])),100
6,CC[C@H](C)[C@@H]1NC(=O)[C@H](CC(C)C)N(CC)C(=O)C[C@@H](C(=O)N2CCOCC2)N(C)C(=O)[C@H](C2CCCC2)N(C)C(=O)C2(CCCC2)NC(=O)[C@@H]2CCCN2C(=O)[C@H](CCc2ccc(C(F)(F)F)c(Cl)c2)NC(=O)CN(C)C(=O)[C@H](CC2CCCCC2)N(C)C(=O)[C@@H]2CCN2C(=O)[C@H](C)NC1=O [Compound 1266] ([NEtLeu]IA[Aze][NMeCha][Sar][hPhe(3-Cl-4-CF3)]P[Ac5c][NMeGly(cPent)][NMeD]-Morpholide; lactam N-11),1.2
7,CC[C@H](C)[C@@H]1NC(=O)[C@H](CC(C)C)N(C)C(=O)C[C@@H](C(=O)N2CCCCC2)N(C)C(=O)[C@H](C2CCCCC2)N(C)C(=O)C2(CCCC2)NC(=O)[C@H](C)N(C)C(=O)[C@H](CCc2ccc(C(F)(F)F)c(Cl)c2)NC(=O)CN(C)C(=O)[C@H](CC2CCCCC2)N(C)C(=O)CN(C)C(=O)CN(C)C1=O [Compound 294] ([NMeL]I[Sar][Sar][NMeCha][Sar][hPhe(3-Cl-4-CF3)][NMeA][Ac5c][NMeChg][NMeD]-Piperidide; lactam N-11),1.4
8,CC[C@H](C)[C@@H]1NC(=O)[C@H](C)N(C)C(=O)C[C@@H](C)NC(=O)[C@H](C2CCCC2)N(C)C(=O)C2(CCCC2)NC(=O)[C@@H]2CCCN2C(=O)[C@H](CCc2ccc(C(F)(F)F)c(Cl)c2)NC(=O)[C@H]2CCCN2C(=O)[C@H](Cc2ccc(C)cc2)N(C)C(=O)CN(C)C(=O)CN(C)C1=O [Compound 1525] (cyclo([Ac5c][NMeGly(cPent)][d(β3hA)][NMeA]I[Sar][Sar][NMePhe(4-Me)][dP][hPhe(3-Cl-4-CF3)]P)),100
9,CCO[C@@H]1C[C@H]2C(=O)NC3(CCCC3)C(=O)N(C)[C@@H](C3CCCC3)C(=O)N(C)[C@H](C)CC(=O)N(C)[C@@H](CC(C)C)C(=O)N[C@@H]([C@@H](C)CC)C(=O)N[C@@H](C)C(=O)N3CC[C@H]3C(=O)N(CC)[C@@H](Cc3ccc(C(F)(F)F)cc3)C(=O)N(C)CC(=O)N[C@@H](CCc3ccc(C(F)(F)F)c(Cl)c3)C(=O)N2C1 [Compound 401] (cyclo(A[Aze][NEtPhe(4-CF3)][Sar][hPhe(3-Cl-4-CF3)][Hyp](Et)[Ac5c][NMeGly(cPent)][NMedβ3hAla][NMeL]I)),3.6
10,"CCCOC[C@H]1C(=O)N(C)CC(=O)N[C@@H](CCc2ccc(C(F)(F)F)c(F)c2)C(=O)N2CCC[C@H]2C(=O)NC2(CCCC2)C(=O)N(C)[C@@H](C2CCCC2)C(=O)N(C)[C@H](C(=O)N2CCCCC2)CC(=O)N(C)[C@@H](CC(C)C)C(=O)N[C@@H]([C@@H](C)CC)C(=O)N(C)[C@@H](C)C(=O)N2CC[C@H]2C(=O)N1C [Compound 1029] ([NMeL]I[NMeA][Aze][NMeS](Propyl)[Sar][hPhe(3-F,4-CF3)]P[Ac5c][NMeGly(cPent)][NMeD]-Piperidide; lactam N-11)",1.4
11,CCCOC[C@H]1C(=O)N(C)CC(=O)N[C@@H](CCc2ccc(C(F)(F)F)c(Cl)c2)C(=O)N2CCC[C@H]2C(=O)NC2(CCCC2)C(=O)N(C)[C@@H](C2CCCC2)C(=O)N(C)[C@H](C(=O)N2C3CCC2COC3)CC(=O)N(CC)[C@@H](CC(C)C)C(=O)N[C@@H]([C@@H](C)CC)C(=O)N(C)[C@@H](C)C(=O)N2CC[C@H]2C(=O)N1C [Compound 1193] ([NEtLeu]I[NMeA][Aze][NMeS](Propyl)[Sar][hPhe(3-Cl-4-CF3)]P[Ac5c][NMeGly(cPent)][NMeD]-{3Oxa8azabicyclo(3.2.1)octane}; lactam N-11),2.1
12,CC[C@H](C)[C@@H]1NC(=O)[C@H](C)N(C)C(=O)C[C@@H](C)NC(=O)[C@H](CC(C)C)N(C)C(=O)[C@H](Cc2ccccc2)N(C)C(=O)[C@@H]2C[C@H](O)CN2C(=O)[C@H](CCc2ccc(C(F)(F)F)cc2)NC(=O)CN(C)C(=O)[C@H](Cc2ccc(Cl)cc2)N(C)C(=O)CN(C)C(=O)CN(C)C1=O [Compound 1373] (cyclo(I[Sar][Sar][NMePhe(4-Cl)][Sar][hPhe(4-CF3)][cisHyp][NMeF][NMeL][d(β3hA)][NMeA])),7.7
13,CO[C@H](C)[C@@H]1NC(=O)[C@H](CC(C)C)N(C)C(=O)C[C@@H](C(=O)N2CCCCC2)N(C)C(=O)[C@H](C(C)C)N(C)C(=O)C2(CCCC2)NC(=O)[C@@H]2CCCN2C(=O)[C@H](CCc2ccc(C(F)(F)F)c(Cl)c2)NC(=O)CN(C)C(=O)[C@H](CC2CCCCC2)N(C)C(=O)[C@@H]2CCN2C(=O)[C@H](C)N(C)C1=O [Compound 497] ([NMeL]T(Me)[NMeA][Aze][NMeCha][Sar][hPhe(3-Cl-4-CF3)]P[Ac5c][NMeV][NMeD]-Piperidide; lactam N-11),4.3
14,CC[C@H](C)[C@@H]1NC(=O)[C@H](C)N(C)C(=O)C[C@@H](C(=O)N2CCCC2)N(C)C(=O)[C@H](C(C)C)N(C)C(=O)C2(CCCC2)NC(=O)[C@H](Cc2ccccc2Cl)N(C)C(=O)[C@H](CCc2ccc(C(F)(F)F)c(Cl)c2)NC(=O)CN(C)C(=O)[C@H](CC2CCCCC2)N(C)C(=O)CN(C)C(=O)CN(C)C1=O [Compound 2008] ([NMeA]I[Sar][Sar][NMeCha][Sar][hPhe(3-Cl-4-CF3)][NMePhe(2-Cl)][Ac5c][NMeV][NMeD]-Pyrrolidide; lactam N-11),140
15,CC[C@H](C)[C@@H]1NC(=O)[C@H](C)N(C)C(=O)C[C@@H](CC(C)C)NC(=O)[C@H](C(C)C)N(C)C(=O)[C@H](Cc2ccccc2)N(C)C(=O)[C@H](CC(C)C)N(C)C(=O)[C@H](CCc2ccc(C(F)(F)F)cc2)NC(=O)CN(C)C(=O)[C@H](Cc2ccc(Cl)cc2)N(C)C(=O)CN(C)C(=O)CN(C)C1=O [Compound 972] (cyclo(I[Sar][Sar][NMePhe(4-Cl)][Sar][hPhe(4-CF3)][NMeL][NMeF][NMeV][d(β3hL)][NMeA])),330
16,CC[C@H](C)[C@@H]1NC(=O)[C@H](C2CCCCC2)N(C)C(=O)C[C@@H](C)NC(=O)[C@H](C(C)C)N(C)C(=O)C2(CCCC2)NC(=O)[C@@H]2CCCN2C(=O)[C@H](CCc2ccc(C(F)(F)F)c(Cl)c2)NC(=O)CN(C)C(=O)[C@H](CC2CCCCC2)N(C)C(=O)[C@@H]2CCN2C(=O)[C@H](C)N(C)C1=O [Compound 873] (cyclo([Ac5c][NMeV][d(β3hA)][NMeChg]I[NMeA][Aze][NMeCha][Sar][hPhe(3-Cl-4-CF3)]P)),51
17,"CC[C@H](C)[C@@H]1NC(=O)[C@H](CC(C)C)N(C)C(=O)C[C@@H](C)N(C)C(=O)[C@H](C2CCCCC2)N(C)C(=O)C2(CCCC2)NC(=O)[C@@H]2CC(F)(F)CN2C(=O)[C@H](CCc2ccc(C(F)(F)F)c(Cl)c2)NC(=O)CN(C)C(=O)[C@H](Cc2ccc(C(F)(F)F)cc2)N(C)C(=O)[C@@H]2CCN2C(=O)[C@H](C)N(C)C1=O [Compound 319] (cyclo([Ac5c][NMeChg][NMedβ3hAla][NMeL]I[NMeA][Aze][NMePhe(4-CF3)][Sar][hPhe(3-Cl-4-CF3)][Pro(4,4-F2)]))",8.2
18,CCCC[C@H]1C(=O)N2CC[C@H]2C(=O)N(C)[C@@H](CC2CCCCC2)C(=O)N(C)CC(=O)N[C@@H](CCc2ccc(C(F)(F)F)c(Cl)c2)C(=O)N2CCC[C@H]2C(=O)NC2(CCCC2)C(=O)N(C)[C@@H](C(C)C)C(=O)N(C)[C@H](C(=O)N2CCCCC2)CC(=O)N(C)[C@@H](CC(C)C)C(=O)N[C@@H]([C@@H](C)CC)C(=O)N1C [Compound 1596] ([NMeL]I[NMeNle][Aze][NMeCha][Sar][hPhe(3-Cl-4-CF3)]P[Ac5c][NMeV][NMeD]-Piperidide; lactam N-11),23
